Laboratory results reported in publication PMC6978363, “Chaperone mediated detection of small molecule target binding in cells” (Nature Communications, 2020).

Molecular target: T1, c-RAF (Homo sapiens, UniProt P04049)
T1 construct: gene RAF1
Test: c-RAF protein level change by immunofluorescence in A549 cells (with and without 17-AAG)
Format: cell-based

T1 sequence (P04049 whole entry): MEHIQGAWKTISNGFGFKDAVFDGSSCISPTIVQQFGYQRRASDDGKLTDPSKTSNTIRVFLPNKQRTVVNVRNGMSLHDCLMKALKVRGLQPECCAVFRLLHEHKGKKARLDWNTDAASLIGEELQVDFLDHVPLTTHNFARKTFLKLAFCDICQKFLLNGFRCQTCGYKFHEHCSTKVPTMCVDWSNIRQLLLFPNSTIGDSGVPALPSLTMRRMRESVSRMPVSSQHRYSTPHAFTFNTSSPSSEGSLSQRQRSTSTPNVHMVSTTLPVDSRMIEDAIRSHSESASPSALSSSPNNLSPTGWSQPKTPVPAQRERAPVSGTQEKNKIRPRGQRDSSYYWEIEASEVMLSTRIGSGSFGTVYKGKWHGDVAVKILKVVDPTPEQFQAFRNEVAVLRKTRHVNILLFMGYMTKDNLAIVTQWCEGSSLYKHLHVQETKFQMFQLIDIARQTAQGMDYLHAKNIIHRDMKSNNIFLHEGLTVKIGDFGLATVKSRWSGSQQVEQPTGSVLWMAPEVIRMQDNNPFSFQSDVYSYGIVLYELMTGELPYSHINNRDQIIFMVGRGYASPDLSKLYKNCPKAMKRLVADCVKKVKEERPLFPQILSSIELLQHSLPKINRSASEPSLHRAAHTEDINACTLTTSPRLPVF

Cc1ccc(NC(=O)c2ccnc(C(F)(F)F)c2)cc1-c1cc(N2CCOCC2)nc(N2CC(O)C2)c1 [Novartis pan-RAF inhibitor]
c-RAF protein level change by immunofluorescence in A549 cells (with and without): The interactions between c-RAF and these inhibitors are examples of a small molecule causing a direct effect on protein abundance
